How the values were obtained:
[1] = target: T1, 12-LO (Homo sapiens, UniProt P18054); test: 12-HETE formation in intact PMNL preparations, A23187 + 20 µM AA; assay type: cell-based; details: 15 min preincubation, A23187 2.5 µM + 20 µM AA, n.i. = no inhibition observed
T1 construct: endogenous in cells; host or cells: platelet impurities in human PMNL preparations
T1 sequence (P18054 1-663): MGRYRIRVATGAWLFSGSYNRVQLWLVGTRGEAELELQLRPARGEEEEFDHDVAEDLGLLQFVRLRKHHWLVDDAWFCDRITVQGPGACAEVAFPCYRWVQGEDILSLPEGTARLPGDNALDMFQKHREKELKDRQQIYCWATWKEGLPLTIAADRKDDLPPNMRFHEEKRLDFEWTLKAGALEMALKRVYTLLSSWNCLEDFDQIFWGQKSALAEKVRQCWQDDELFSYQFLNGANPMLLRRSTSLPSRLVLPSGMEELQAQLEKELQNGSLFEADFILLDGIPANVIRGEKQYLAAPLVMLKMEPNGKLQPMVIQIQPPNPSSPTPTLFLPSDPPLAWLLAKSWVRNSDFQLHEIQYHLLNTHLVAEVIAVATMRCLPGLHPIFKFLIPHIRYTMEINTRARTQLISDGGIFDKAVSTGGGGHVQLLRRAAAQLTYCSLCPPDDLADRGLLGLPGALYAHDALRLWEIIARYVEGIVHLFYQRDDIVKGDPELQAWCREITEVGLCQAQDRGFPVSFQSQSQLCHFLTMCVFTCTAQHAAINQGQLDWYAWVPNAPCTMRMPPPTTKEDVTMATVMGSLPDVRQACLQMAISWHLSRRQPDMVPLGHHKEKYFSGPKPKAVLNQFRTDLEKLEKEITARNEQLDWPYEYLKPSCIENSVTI
Protocol: Buffy coats from different donors of different blood types were commercially obtained from DRK Blutspendedienst Baden-Württemberg Institute Frankfurt. Donors have given their written consent. […] Following separation, the supernatant was transferred very gently to new 50-ml tubes containing lymphocyte separation medium (LSM) and centrifuged for 10 min at 800 ×g at RT with the centrifuge brake turned off. Afterwards, the supernatant was decanted carefully to discard the platelets and monocytes. The PMNL were washed with 1× PBS before the residual erythrocytes were lysed in two cycles: the cell pellet was resuspended with 10 ml H2O and vortexed for 45 s, and lysis was stopped with 40 ml 1 × PBS. After 10-min centrifugation at 200 ×g at RT, the cycle was repeated once. The supernatant was aspirated, the cell pellet resuspended in 5 ml PBS/glucose and initially separated PMNL preparations with different blood types were finally pooled to gain a sufficient number of cells. […] The enzyme was diluted in PBS/EDTA/ATP, transferred into 5-ml glass tubes, and stored on ice. […] The reaction was stopped by placing the glass tubes on ice. The supernatants were transferred to 1.5 ml reaction tubes and stored at −80°C before LC-MS (liquid chromatography and mass spectrometry) analysis of LTB4 and HETEs as described in 2.6 at the Institute of Pharmacology, Goethe University, University Hospital, Germany. The lipid mediators LTB4, hydroxyeicosatetraenoic acids, 5(S)-HETE, 12(S)-HETE, 15(S)-HETE and 20-HETE were analyzed using liquid chromatography tandem-mass spectroscopy (LC-MS/MS). The LC-MS/MS system consisted of a 5500 QTrap mass spectrometer (Sciex, Darmstadt, Germany), operating in negative ESI mode, an Agilent 1200 HPLC system (Agilent, Waldbronn, Germany) and an HTC Pal autosampler (Chromtech, Idstein, Germany). Sample extraction of LTB4 and HETEs were performed using liquid-liquid extraction: 200 µl of the sample were gently mixed with 20 µl of methanol and 20 µl of internal standard solution and extracted twice with 600 µl ethyl acetate. […] Working solutions of all analytes were prepared in methanol containing 0.1% BHT. The calibration standards were prepared by further dilution of the working standards. […] The residues were reconstituted in 50 µl of methanol:water:BHT (50:50:10^−4, v/v/v) prior to injection into the LC-MS/MS system. Chromatographic separation was achieved using a Gemini NX C18 column (150 mm × 2 mm ID, 5 µm, Phenomenex, Aschaffenburg, Germany) with a precolumn of the same material. A linear gradient was employed at a flow rate of 0.5 ml/min and a total run time of 17.5 min. Mobile phases were A water:ammonia (100:0.05, v/v) and B acetonitrile:ammonia (100:0.05, v/v). […] All data were acquired using Analyst software v1.6.2 and quantitation was performed by MultiQuant software v3.0 (both Sciex, Darmstadt, Germany) using the internal standard method (isotope-dilution mass spectrometry). Calibration curves were calculated by linear regression with 1/x.

[2] = system: HCT-116 cells; test: WST-1 cell viability assay, HCT-116; assay type: cell-based, human; details: for IC50: Homo sapiens, HCT-116; for cytotoxic potency higher compared to 9NOA: HCT-116 and HT-29 cells
Protocol: (§1) Cell viability was analyzed with the WST-1 assay based on the cleavage of the stable tetrazolium salt WST-1 by the mitochondrial reductase system. Cells were seeded in the appropriate densities in a clear 96-well plate and settled overnight at 37°C in 5% CO2. The next day, the cells were treated with NFA or the substances of interest (≤0.1% dimethyl sulfoxide [DMSO]) and incubated for 24 or 48 h at 37°C in 5% CO2. Cell viability was analyzed by adding 10 µl WST-1 solution (Roche, Basel, Switzerland) and subsequently incubating the cells at 37°C for another 30–40 min. Absorbance was measured at 450 nm with a control wavelength at 620 nm using a plate reader.
(§2) Besides targeting the NF-κB pathway, the anti-tumorigenic effects of NFA can be observed by a reduction of colorectal cancer cell viability. […] Again, the cytotoxic effects of NFA were determined in HCT-116 and HT-29 colorectal cancer cells in the present study. […] HCT-116 cells were treated with increasing concentrations of NFA differing in chain length and Michael acceptor position for 24 h, and cell viability was determined using the WST-1 assay. Due to their prolonged cell division rate and their lack of sensitivity towards NFA ([Kühn et al., 2018]), HT-29 cells were treated for 48 h to gain improved NFA activity.

[3] = system: HT-29 cells; test: WST-1 cell viability assay, HT-29; assay type: cell-based, human; details: n.i. = no inhibition observed; for IC50: Homo sapiens, HT-29, 48 h
Protocol: as §1, §2

[4] = WST-1 cell viability, 24 h, n.i. = no inhibition observed

Row | SMILES | PMNL (20 µM AA) 12-HETE IC50 [1] | IC50 [2, 4] [µM] | IC50 [3] [µM] | cytotoxic potency higher compared to 9NOA [2] [fold] | HCT-116 (24 h) IC50 [2, 4] | HT-29 (48 h) IC50 [3]
1 | CCC=C(CCCCCCCC(=O)O)[N+](=O)[O-] [12.9.9, 9-nitro-dodec-9-enoic acid] | n.i. | 23.1 ± 1.1 | ~31.5 | – | – | –
2 | CCCCC=C(CCCCCCCC(=O)O)[N+](=O)[O-] [14.9.9, 9-nitro-tetradec-9-enoic acid] | n.i. | 16.8 ± 1.1 | 27.4 ± 1 | – | – | –
3 | CCCCCCC=C(CCCCCCCC(=O)O)[N+](=O)[O-] [16.9.9, 9-nitro-hexadec-9-enoic acid] | n.i. | 10.5 ± 1.1 | 12.7 ± 1.1 | – | – | –
4 | CCCCCCCCCCCC=C(CCCCC(=O)O)[N+](=O)[O-] [18.6.6, 6-nitro-octadec-6-enoic acid] | n.i. | 7.6 ± 1.1 | 11.1 ± 1.1 | – | – | –
5 | CCCCCCCCCCCC(=CCCCCC(=O)O)[N+](=O)[O-] [18.6.7, 7-nitro-octadec-6-enoic acid] | n.i. | 8.1 ± 1.1 | 13.8 ± 1.1 | – | – | –
6 | CCCCCCCCCCC=C(CCCCCC(=O)O)[N+](=O)[O-] [18.7.7, 7-nitro-octadec-7-enoic acid] | n.i. | 2.7 ± 1.1 | 4.4 ± 1.1 | > 2 | – | –
7 | CCCCCCCCCC=C(CCCCCCC(=O)O)[N+](=O)[O-] [18.8.8, 8-nitro-octadec-8-enoic acid] | n.i. | 2.1 ± 1.1 | 3.3 ± 1.1 | > 2 | – | –
8 | CCCCCCCCC=C(CCCCCCCC(=O)O)[N+](=O)[O-] [18.9.9, 9-nitro-octadec-9-enoic acid] | n.i. | 6.4 ± 1.2 | 8.8 ± 1.1 | – | – | –
9 | CCCCCCCCCCC=C(CCCCCCCC(=O)O)[N+](=O)[O-] [20.9.9, 9-nitro-eicos-9-enoic acid] | n.i. | 5.4 ± 1.1 | 8.1 ± 1.1 | – | – | –
10 | CCCCCCCC/C=C\CCCCCCCC(=O)O [OA, oleic acid, reference compound] | not affected and n.i. | – | – | – | failed to induce cytotoxic effects and n.i. | failed to induce cytotoxic effects and n.i.

The next lines start with results.

Row | PMNL (20 µM AA) 12-HETE IC50 [1] | IC50 [2, 4] [µM] | IC50 [3] [µM] | SMILES | cytotoxic potency higher compared to 9NOA [2] [fold] | HCT-116 (24 h) IC50 [2, 4] | HT-29 (48 h) IC50 [3]
11 | n.i. | 18.6 ± 1.1 | 23.9 ± 1.1 | CCCCCCCCCCCCCC=C(CCC(=O)O)[N+](=O)[O-] [18.4.4, 4-nitro-octadec-4-enoic acid] | – | – | –
12 | n.i. | 11.6 ± 1.1 | 18.5 ± 1.1 | CCCCCCCCCCCCC=C(CCCC(=O)O)[N+](=O)[O-] [18.5.5, 5-nitro-octadec-5-enoic acid] | – | – | –
13 | n.i. | 4.6 ± 1.1 | 8 ± 1.1 | CCCCCCCCCC(=CCCCCCCC(=O)O)[N+](=O)[O-] [18.8.9, 9-nitro-octadec-8-enoic acid] | – | – | –
14 | n.i. | 13.5 ± 1.1 | 15.7 ± 1.1 | CCCCCCCCC(=CCCCCCCCC(=O)O)[N+](=O)[O-] [18.9.10, 10-nitro-octadec-9-enoic acid] | – | – | –
15 | n.i. | 13.6 ± 1.1 | 13.9 ± 1.1 | CCCCCCCC=C(CCCCCCCCC(=O)O)[N+](=O)[O-] [18.10.10, 10-nitro-octadec-10-enoic acid] | – | – | –
16 | n.i. | 16 ± 1.1 | 16.6 ± 1.1 | CCCCCCC=C(CCCCCCCCCC(=O)O)[N+](=O)[O-] [18.11.11, 11-nitro-octadec-11-enoic acid] | – | – | –

Reference: PMC8637440, “Structural Modifications Yield Novel Insights Into the Intriguing Pharmacodynamic Potential of Anti-inflammatory Nitro-Fatty Acids” (Frontiers in Pharmacology, 2021)
